In article PMC8197855, “Peptide/β-Peptoid Hybrids with Activity against Vancomycin-Resistant Enterococci: Influence of Hydrophobicity and Structural Features on Antibacterial and Hemolytic Properties” (International Journal of Molecular Sciences, 2021):

Legend:
[1] = system: E. faecium and E. faecalis isolates; test: MIC summarised over all isolates; assay type: cell-based, Enterococcus faecium and Enterococcus faecalis; settings: summary over all isolates
Protocol: (§1) Overnight cultures of the enterococcal isolates were diluted in physiological saline (0.9% NaCl) to reach a turbidity of 0.5 McFarland units (Sensititre® nephelometer and the Sensititre® McFarland Standard). Bacterial suspensions were adjusted to 5 × 10^5 CFU/mL in MHB II or BHI broth containing two-fold dilutions of peptidomimetics or conventional antibiotics in a final volume of 100 µL. The plates were incubated for 24 h at 37 °C without shaking. […] All experiments were performed in three biological replicates.

human red blood cells = test: Hemolytic activity; assay type: cell-based; settings: 60 min, 37 °C, 1% red blood cell suspension
Method in brief: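 Washed cells (1% suspension) incubated with compound at final 400 μg/mL, 60 min at 37 °C with mild agitation, triplicate wells. Released hemoglobin read at OD405 in supernatant; percent hemolysis normalised to 1% SDS (100%) and PBS (0%).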

E. faecium isolates = assay type: cell-based, Enterococcus faecium; settings: 24 h
Protocol: as §1

E. faecium ATCC 19434 = test: Broth checkerboard assay with conventional antibiotics; assay type: cell-based, Enterococcus faecium
Protocol: The strain culture preparation and final volume were the same as in the MIC assay. […] The plates were incubated for 24 h at 37 °C without shaking. […] All experiments were performed in two biological replicates.
To evaluate the effect of the combinations, the fractional inhibitory concentration index (FICI) was calculated for each combination according to:ΣFIC = FICA + FICB = (CA/MICA) + (CB/MICB)
The drug interaction was scored as follows: synergy—FICI ≤ 0.5; no interaction—FICI > 0.5–4; antagonism—FICI > 4 [40].

Row | SMILES | MIC (range) against all E. faecium and E. faecalis isolates [1] | Hemolysis (at 400 µg/mL) (human red blood cells) | MIC (range or typical value) against E. faecium (E. faecium isolates) | Effect on the MIC of rifampicin (E. faecium ATCC 19434; compound supplemented at 0.25× MIC) | Reduction in the MIC of rifampicin (E. faecium ATCC 19434; compound supplemented at 0.5× MIC)
1 | CC(=O)N[C@@H](CCCCNC(=N)N)C(=O)N(CCC(=O)N[C@@H](CCCCNC(=N)N)C(=O)N(CCC(=O)N[C@@H](CCCCNC(=N)N)C(=O)N(CCC(=O)N[C@@H](CCCCNC(=N)N)C(=O)N(CCC(=O)N[C@@H](CCCCNC(=N)N)C(=O)N(CCC(=O)N[C@@H](CCCCNC(=N)N)C(=O)N(CCC(N)=O)[C@@H](C)C1CCCCC1)[C@@H](C)C1CCCCC1)[C@@H](C)C1CCCCC1)[C@@H](C)C1CCCCC1)[C@@H](C)C1CCCCC1)[C@@H](C)C1CCCCC1 [Compound 2, Ac-[hArg-βNsce]6-NH2] | 2 to 4 µg/mL |  |  |  | 
2 | CC(=O)N[C@@H](CCCCNC(=N)N)C(=O)N(CCC(=O)N[C@@H](CCCCN)C(=O)N(CCC(=O)N[C@@H](CCCCNC(=N)N)C(=O)N(CCC(=O)N[C@@H](CCCCN)C(=O)N(CCC(=O)N[C@@H](CCCCNC(=N)N)C(=O)N(CCC(=O)N[C@@H](CCCCN)C(=O)N(CCC(N)=O)[C@@H](C)c1ccccc1)[C@@H](C)C1CCCCC1)[C@@H](C)c1ccccc1)[C@@H](C)C1CCCCC1)[C@@H](C)c1ccccc1)[C@@H](C)C1CCCCC1 [Compound 5, Ac-[hArg-βNsce-Lys-βNspe]3-NH2] |  | 9.4% |  |  | 
3 | CCCCCCCC(=O)N[C@@H](CCCCN)C(=O)N(CCC(=O)N[C@@H](CCCCN)C(=O)N(CCC(=O)N[C@@H](CCCCN)C(=O)N(CCC(=O)N[C@@H](CCCCN)C(=O)N(CCC(=O)N[C@@H](CCCCN)C(=O)N(CCC(=O)N[C@@H](CCCCN)C(=O)N(CCC(N)=O)[C@@H](C)c1ccccc1)[C@@H](C)c1ccccc1)[C@@H](C)c1ccccc1)[C@@H](C)c1ccccc1)[C@@H](C)c1ccccc1)[C@@H](C)c1ccccc1 [Compound 10, Oct-[Lys-βNspe]6-NH2] |  | 6.9% | 2 to 8 µg/mL | no effect | 4–8 fold
